The target of series [1] is T1, human Oxytocin Receptor (hOTR) (Homo sapiens, UniProt P30559).
T1 construct: host or cells: CHEM-1 (ready-to-assay frozen cells)
T1 sequence (P30559 1-389): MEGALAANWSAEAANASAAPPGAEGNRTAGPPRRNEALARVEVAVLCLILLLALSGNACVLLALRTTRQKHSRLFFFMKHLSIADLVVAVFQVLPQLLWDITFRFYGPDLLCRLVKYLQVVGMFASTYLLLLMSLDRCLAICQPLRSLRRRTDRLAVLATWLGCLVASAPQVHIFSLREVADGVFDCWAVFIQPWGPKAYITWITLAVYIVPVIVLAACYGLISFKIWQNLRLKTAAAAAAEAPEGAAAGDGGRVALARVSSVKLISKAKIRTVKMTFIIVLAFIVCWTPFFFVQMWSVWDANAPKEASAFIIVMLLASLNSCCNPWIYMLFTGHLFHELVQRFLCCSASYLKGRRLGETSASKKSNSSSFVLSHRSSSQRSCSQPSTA
Nature of the series: Oxytocin receptor (OTR) antagonist assay (FLIPR calcium, CHEM-1-hOTR cells). Type of series: cell-based. The procedure: This assay was performed in CHEM-1 cells expressing the human Oxytocin Receptor (hOTR) to determine the inhibitory effect of the compounds of the invention on the human Oxytocin receptor. Oxytocin evokes an increase in intracellular calcium in CHEM-1-hOTR cells which is measured in a fluorescence assay on the FLIPR^TETRA using calcium sensitive dyes. Test compounds were assessed for their ability to affect the magnitude of the response to oxytocin, with antagonists showing a concentration-dependent reduction in the oxytocin-mediated fluorescence.
CHEM-1-hOTR ready was used to assay frozen cells (Eurofins #HTS09ORTA) which are supplied with a proprietary Media Component.
Day 1 of the assay: Cells were thawed in a 37° C. water bath and diluted with the supplied Media Component to a final volume of 10 ml. The cell suspension was centrifuged at 1000 rpm for 3 min at room temperature and the supernatant was discarded. The cell pellet was resuspended in Media Component (10.5 ml) and the cells (25 μL) were dispensed into a poly-D-lysine coated black, clear bottomed, 384-well plate. The plates were incubated overnight at 37° C., 5% CO2.
Day 2: At the start of each assay day the potency of oxytocin was assessed and an EC80 concentration was determined for subsequent compound profiling. Assays were performed using a two-step addition protocol on the FLIPR^TETRA; first addition of 5 μl of control or test compound at 10× final in assay buffer with 15 min incubation at 37° C., 5% CO2 followed by 10 μl of oxytocin at 6× final concentration in assay buffer. Changes in fluorescence were monitored for 3 min after both additions on the FLIPR^TETRA using 470-495 nm excitation and 515-575 nm emission wavelengths. The assay buffer consisted of HBSS (+Ca/+Mg) supplemented with 20 mM HEPES, and for the preparation of the oxytocin agonist only, 0.1% w/v bovine serum albumin. The assay was initiated by the removal of growth media from the cells and replaced with 45 μl of Calcium-6 dye (Molecular Devices) prepared at 1× in assay buffer. Cells were loaded with dye for 60-90 min at 37° C., 5% CO2 before initiation of the FLIPR^TETRA protocol. […] For compound profiling, test compounds were first serially diluted in DMSO (10-point curve, 1:3 dilutions) then diluted 33.3-fold in assay buffer prior to addition to the dye loaded cells on the FLIPR^TETRA. At the end of the incubation period 10 μl of oxytocin in assay buffer containing 0.1% BSA was added at the previously determined EC80 concentration.
In-plate controls for the assay included a L-368,899 concentration-response curve as the reference OTR antagonist and an oxytocin concentration-response curve to confirm the reproducibility of the EC80 used for the compound challenge.

Series [2] addresses T2, human Arginine Vasopressin Receptor 1a (AVPR1a) (Homo sapiens, UniProt P37288).
T2 construct: expressed in transfected cells; host or cells: CHO (CHO-AVPR1a, kept under G418 selection)
Nature of the series: Vasopressin V1a receptor antagonist assay (FLIPR calcium, CHO-AVPR1a cells). Type of series: cell-based. An outline of the steps:
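CHO cells expressing human AVPR1a were loaded with Calcium-6 dye and preincubated with compound for 15 min at 37° C. Cells were then challenged with AVP at its daily-determined EC80, and FLIPR fluorescence was read. Compounds were tested in duplicate as 10-point 1:3 dilutions from a top final concentration of 3 μM.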

Series [3] is described as follows: Wild-type MDCK permeability and efflux assay (Papp, efflux ratio). It is filed as in vitro ADME. The note with it: dog, pH 7.4, wild-type MDCK cells; for efflux ratio at 1 h, 10 μM: Papp B>A/Papp A>B, read-out: ER WT (Efflux Ratio). On the procedure: (§1) The MDR1-MDCK effective efflux assay was performed as described in the BioFocus Standard Operating Procedure, ADME-SOP-56. Both wild-type (WT) and MDR1-MDCK cells (Solvo Biotechnology) were seeded onto 24-well Transwell plates at 2.35×10^5 cells per well and used in confluent monolayers after a 3 day culture at 37° C. under 5% CO2. For both cell types, test and control compounds (propranolol, vinblastine) were added (10 μM, 0.1% DMSO final, n=2) to donor compartments of the Transwell plate assembly in assay buffer (Hanks balanced salt solution supplemented with 25 mM HEPES, adjusted to pH 7.4) for both apical to basolateral (A>B) and basolateral to apical (B>A) measurements. Incubations were performed at 37° C., with samples removed from both donor and acceptor chambers at T=0 and 1 hour and compound analysed by mass spectrometry (LC-MS/MS) including an analytical internal standard.
(§2) Apparent permeability (Papp) values were determined from the relationship: Papp=[CompoundAcceptor T=end]×V Acceptor/([Compound Donor T=0]×V Donor)/incubation time×V Donor/Area×60×10^−6 cm/s
(§3) In this equation, V is the volume of each Transwell compartment (apical 125 μL, basolateral 600 μL), and concentrations are the relative MS responses for compound (normalized to internal standard) in the donor chamber before incubation and acceptor chamber at the end of the incubation, and Area is the area of cells exposed for drug transfer (0.33 cm^2).
(§4) Efflux ratios (Papp B>A/Papp A>B) were calculated for each compound from the mean Papp values in each direction for both wild-type and MDR1-MDCK cells.
(§5) In order to confirm the involvement of MDR1 in any efflux seen, an “effective efflux ratio” (EER) was calculated by comparing compound efflux ratios (ER) in the two cell types by the following equation: EER=ER(MDR1-MDCK)/ER(wild-type MDCK)
(§6) This ratio illustrates the effect of the over-expressed MDR1 normalised for the background movement of compound through the wild-type cells.
(§7) Lucifer Yellow (LY) was added to the apical buffer in all wells to assess viability of the cell layer. […] Recoveries<50% indicates compound solubility, stability or binding issues, thereby reducing the reliability of a result.
(§8) The inherent ability of a potential drug molecule to penetrate the blood brain barrier and avoid efflux by transporters expressed in the brain, can be roughly correlated with the Papp(A-B) and the efflux ratio (as defined above), respectively. A potential drug molecule with an apparent permeability<7 (10^−6 cm/sec) has low permeability (+), >7 (10^−6 cm/sec) but <10 (10^−6 cm/sec) has moderate permeability (++), >10 (10^−6 cm/sec) but <20 (10^−6 cm/sec) has good permeability (+++), and >20 (10^−6 cm/sec) is highly permeable (++++). High permeability in the WT and MDCK II cell permeability assay increases the probability of blood brain barrier penetration and access to the CNS. A potential drug molecule in the above assay system with an efflux ratio or effective efflux ratio of <1 has low probability of being an efflux substrate (++++), >1 but <2 has moderate probability of being an efflux substrate (+++), >2 but <3 has has an increased probability of being an efflux substrate (++), and >3 has a high probability of being an efflux substrate (+). If a potential drug molecule is an efflux substrate, the molecule will have a low probability of reaching exposures in the brain (site of action) that will result in efficacious levels of receptor occupancy.

Another series deals with T3, MDR1 (P-glycoprotein) (Homo sapiens, UniProt P08183).
T3 construct: host or cells: MDCK (MDR1-MDCK; wild-type MDCK as comparator)
T3 sequence (P08183 whole entry): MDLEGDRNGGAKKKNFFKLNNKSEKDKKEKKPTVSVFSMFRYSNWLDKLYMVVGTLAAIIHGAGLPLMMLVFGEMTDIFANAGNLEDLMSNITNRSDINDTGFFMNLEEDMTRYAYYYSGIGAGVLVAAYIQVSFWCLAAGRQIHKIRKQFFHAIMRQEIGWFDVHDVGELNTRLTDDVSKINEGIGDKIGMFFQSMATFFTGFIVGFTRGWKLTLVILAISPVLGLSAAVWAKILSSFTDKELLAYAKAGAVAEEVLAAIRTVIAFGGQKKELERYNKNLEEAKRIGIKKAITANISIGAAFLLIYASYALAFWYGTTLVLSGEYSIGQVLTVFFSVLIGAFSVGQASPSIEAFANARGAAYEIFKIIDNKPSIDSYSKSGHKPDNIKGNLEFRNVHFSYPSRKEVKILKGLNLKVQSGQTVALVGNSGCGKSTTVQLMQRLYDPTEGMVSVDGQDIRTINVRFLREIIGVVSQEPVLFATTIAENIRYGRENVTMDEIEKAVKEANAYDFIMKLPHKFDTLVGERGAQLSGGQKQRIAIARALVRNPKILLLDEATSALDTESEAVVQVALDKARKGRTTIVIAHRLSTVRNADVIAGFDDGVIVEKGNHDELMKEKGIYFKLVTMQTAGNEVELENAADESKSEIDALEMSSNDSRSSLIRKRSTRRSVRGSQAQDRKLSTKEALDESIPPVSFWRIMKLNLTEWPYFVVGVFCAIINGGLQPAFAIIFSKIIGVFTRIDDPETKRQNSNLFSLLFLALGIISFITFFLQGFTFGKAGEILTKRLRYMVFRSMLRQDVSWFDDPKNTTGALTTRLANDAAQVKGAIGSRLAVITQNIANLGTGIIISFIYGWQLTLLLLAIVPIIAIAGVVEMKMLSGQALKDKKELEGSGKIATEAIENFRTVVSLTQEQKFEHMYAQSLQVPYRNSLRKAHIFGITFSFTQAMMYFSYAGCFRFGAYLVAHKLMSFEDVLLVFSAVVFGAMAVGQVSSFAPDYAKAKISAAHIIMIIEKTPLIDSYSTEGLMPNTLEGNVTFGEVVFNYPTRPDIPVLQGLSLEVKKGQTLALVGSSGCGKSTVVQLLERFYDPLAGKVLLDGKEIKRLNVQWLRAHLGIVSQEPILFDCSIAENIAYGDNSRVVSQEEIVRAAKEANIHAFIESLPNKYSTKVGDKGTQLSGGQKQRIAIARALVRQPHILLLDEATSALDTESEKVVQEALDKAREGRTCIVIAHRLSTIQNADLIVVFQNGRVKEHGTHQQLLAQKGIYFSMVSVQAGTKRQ
The series is described as follows: MDR1-MDCK permeability and efflux assay (Papp, efflux ratio, effective efflux ratio). It is filed as in vitro ADME. The note with it: dog; for Papp A→B at 1 h, 10 μM: pH 7.4, read-out: Papp AB MDR1. The procedure:
as §1, §2, §3, §4, §5, §6, §7, §8

Setting [4] is: MDCK-MDR1, pH 7.4, ER(MDR1-MDCK)/ER(wild-type MDCK), read-out: EER (Effective Efflux Ratio).
Where [5] appears, read: MDCK-MDR1, pH 7.4, Papp B>A/Papp A>B, MDR1-MDCK cells, read-out: ER MDR1 (Efflux Ratio).

Like-named read-outs stand apart in the source and are kept apart here. Bounds are passed on as bounds.

The term IC50 denotes the concentration that inhibits the measured activity by half.

T2 sequence (P37288 whole entry): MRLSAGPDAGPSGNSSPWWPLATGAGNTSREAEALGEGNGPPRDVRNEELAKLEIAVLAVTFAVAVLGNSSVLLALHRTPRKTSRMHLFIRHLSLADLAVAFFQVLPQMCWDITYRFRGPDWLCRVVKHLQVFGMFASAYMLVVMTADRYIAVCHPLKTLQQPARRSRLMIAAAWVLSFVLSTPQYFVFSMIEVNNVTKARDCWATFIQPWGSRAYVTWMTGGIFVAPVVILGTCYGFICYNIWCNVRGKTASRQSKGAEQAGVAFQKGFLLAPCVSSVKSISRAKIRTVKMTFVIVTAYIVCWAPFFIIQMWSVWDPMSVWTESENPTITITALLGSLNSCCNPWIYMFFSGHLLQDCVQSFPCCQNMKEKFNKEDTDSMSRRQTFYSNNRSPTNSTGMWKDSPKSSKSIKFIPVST

On to `Cc1cnc(N2CC3(CN(C(=O)N4c5ccc(Cl)cc5OCC4C)C3)C2)nc1` (single isomer, unassigned) [20-13-A], for which the IC50 in series [1] and in series [2] was at least 1000 nM each time.
Consider `Cc1nc(N2CC3(CN(C(=O)N4c5ccc(Cl)cc5OCC4C)C3)C2)ncc1F` (single isomer, unassigned) [20-7-A], for which the Papp A→B at 1 h, 10 μM (in series [3]; at MDR1 (P-glycoprotein) (MDR1-MDCK cells)) was over 20 ×10⁻⁶ cm/s each time. Also, the efflux ratio at 1 h, 10 μM (in series [3]; on MDR1 (P-glycoprotein) (setting [4]); on MDR1 (P-glycoprotein) (setting [5])) was under 1 each time. Besides, the IC50 in series [2] was at least 1000 nM.
Take `CC1COc2cc(F)ccc2N1C(=O)N1CC2(C1)CN(c1ccc(F)cn1)C2` (single isomer, unassigned) [12-1-A]: the Papp A→B at 1 h, 10 μM (in series [3]; at MDR1 (P-glycoprotein) (MDR1-MDCK cells)) was over 20 ×10⁻⁶ cm/s throughout. The efflux ratio at 1 h, 10 μM is under 1 in series [3], 1 to 2 at MDR1 (P-glycoprotein) (setting [4]) and under 1 at MDR1 (P-glycoprotein) (setting [5]). The IC50 in series [2] was at least 1000 nM.
`O=C(N1CC2(C1)CN(c1cnccn1)C2)N1CCC(O)c2cc(Cl)ccc21` (single isomer, unassigned) [13-3-B]: the Papp A→B at 1 h, 10 μM (in series [3]; on MDR1 (P-glycoprotein) (MDR1-MDCK cells)) was over 20 ×10⁻⁶ cm/s in each case. For the same compound, the values for the efflux ratio at 1 h, 10 μM (in series [3]; on MDR1 (P-glycoprotein) (setting [4]); on MDR1 (P-glycoprotein) (setting [5])) were 1 to 2, over 3 and over 3, respectively. Also, the IC50 in series [2] was under 100 nM.
On to `CC1COc2cc(Cl)ccc2N1C(=O)N1CC2(C1)CN(c1ncccc1F)C2` (single isomer, unassigned) [1-57-B], for which the IC50 in series [1] was under 100 nM; in series [2] it was at least 1000 nM.
For the compound `CC1COc2cc(Cl)ccc2N1C(=O)N1CC2(C1)CN(c1cc(C#N)ccn1)C2` (single isomer, unassigned) [20-6-A], the Papp A→B at 1 h, 10 μM (in series [3]; on MDR1 (P-glycoprotein) (MDR1-MDCK cells)) was over 20 ×10⁻⁶ cm/s in each case. Besides, the efflux ratio at 1 h, 10 μM in series [3] was under 1; on MDR1 (P-glycoprotein) (setting [4]), 1 to 2; on MDR1 (P-glycoprotein) (setting [5]), under 1. For the same compound, the IC50 in series [2] was at least 1000 nM.
In the case of `CC1COc2cc(F)ccc2N1C(=O)N1CC2(C1)CN(c1cc(C#N)ccn1)C2` (stereo not shown) [20-3], the Papp A→B at 1 h, 10 μM (in series [3]; at MDR1 (P-glycoprotein) (MDR1-MDCK cells)) was over 20 ×10⁻⁶ cm/s each time. In addition, the efflux ratio at 1 h, 10 μM in series [3] was 1 to 2; at MDR1 (P-glycoprotein) (setting [4]), under 1; on MDR1 (P-glycoprotein) (setting [5]) it was 1 to 2. The IC50 in series [2] was under 100 nM.

Values taken from patent US12152038B2, “Vasopressin receptor antagonists and products and methods related thereto” (Neumora Therapeutics, Inc., priority 2017, dated 2024).
